Results as given in US20090105217A1, “2-PHENYL-5-AMINO-1,3,4-OXADIAZOLES AND THEIR USE AS NICOTINIC ACETYLCHOLINE RECEPTOR LIGANDS” (priority 2007, published 2009).

Target: T1, human α7 nAChR (Homo sapiens, UniProt P36544)
T1 construct: host or cells: GH4C1 cells (pituitary tumor, immortalized cell line)
Assay: α7 nAChR FLIPR (Fluorometric Imaging Plate Reader) Ca2+ assay, agonist EC50
Assay type: cell-based
Details: GH4C1 cells stably transfected with human α7 nAChR; Fluo-4 Ca2+ fluorescence; Examples 194 to 205 tested as the HCl salt; read-out: pEC50 value (negative logarithm of the agonist EC50) (converted)
Summary of the method: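 GH4C1 cells stably expressing human α7 nAChR, loaded with 2 μM Fluo-4 for 45–60 min at 37 °C in HEPES buffer pH 7.3 with 2 mM CaCl2 and 2.5 mM probenecid. Peak calcium fluorescence (ex 488, em 510–580 nm) after compound addition fitted for agonist EC50, reported as pEC50.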

T1 sequence (P36544 23-502): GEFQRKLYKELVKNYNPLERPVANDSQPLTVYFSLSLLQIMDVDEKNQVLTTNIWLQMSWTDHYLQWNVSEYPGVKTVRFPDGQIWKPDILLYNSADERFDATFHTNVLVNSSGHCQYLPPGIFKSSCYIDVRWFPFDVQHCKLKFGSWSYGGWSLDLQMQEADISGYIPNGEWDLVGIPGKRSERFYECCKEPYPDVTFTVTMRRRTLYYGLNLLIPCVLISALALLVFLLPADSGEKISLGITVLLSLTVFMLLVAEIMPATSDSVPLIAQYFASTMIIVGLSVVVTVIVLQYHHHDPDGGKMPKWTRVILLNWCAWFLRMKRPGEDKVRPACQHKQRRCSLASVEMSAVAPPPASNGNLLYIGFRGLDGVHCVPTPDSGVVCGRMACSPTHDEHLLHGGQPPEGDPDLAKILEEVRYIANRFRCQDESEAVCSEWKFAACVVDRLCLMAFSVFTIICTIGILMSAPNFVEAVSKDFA

Row | Compound | EC50 [nM]
1 | O=C(Nc1ccc(-c2nnc(NCCCCN3CCCC3)o2)cc1)c1ccccc1 [Example 115, N-[4-(5-{[4-(1-pyrrolidinyl)butyl]amino}-1,3,4-oxadiazol-2-yl)phenyl]benzamide] | ≤ 100
2 | O=C(Nc1ccc(-c2nnc(NCCCCN3CCOCC3)o2)cc1)c1ccccc1 [Example 116, N-[4-(5-{[4-(4-morpholinyl)butyl]amino}-1,3,4-oxadiazol-2-yl)phenyl]benzamide] | ≤ 1000
3 | O=C(Nc1ccc(-c2nnc(NCCCN3CCOCC3)o2)cc1)c1ccccc1 [Example 117, N-[4-(5-{[3-(4-morpholinyl)propyl]amino}-1,3,4-oxadiazol-2-yl)phenyl]benzamide] | ≤ 1000
4 | CCN(CC)CCCNc1nnc(-c2ccc(NC(=O)c3ccccc3)cc2)o1 [Example 118, N-[4-(5-{[3-(diethylamino)propyl]amino}-1,3,4-oxadiazol-2-yl)phenyl]benzamide] | ≤ 1000
5 | CCN(CC)CCCCNc1nnc(-c2ccc(NC(=O)c3ccccc3)cc2)o1 [Example 119, N-[4-(5-{[4-(diethylamino)butyl]amino}-1,3,4-oxadiazol-2-yl)phenyl]benzamide] | ≤ 100
6 | COc1cc(NC(=O)c2ccccc2F)ccc1-c1nnc(NCCCN2CCN3CCC2CC3)o1 [Example 120, N-[4-(5-{[3-(1,4-diazabicyclo[3.2.2]non-4-yl)propyl]amino}-1,3,4-oxadiazol-2-yl)-3-(methyloxy)phenyl]-2-fluorobenzamide] | ≤ 100
7 | O=C(Nc1ccc(-c2nnc(NCCCN3CCN4CCC3CC4)o2)c(F)c1)c1ccccc1F [Example 121, N-[4-(5-{[3-(1,4-diazabicyclo[3.2.2]non-4-yl)propyl]amino}-1,3,4-oxadiazol-2-yl)-3-fluorophenyl]-2-fluorobenzamide] | ≤ 100
8 | COc1cc(NC(=O)c2ccccc2)ccc1-c1nnc(NCCCN2CCN3CCC2CC3)o1 [Example 122, N-[4-(5-{[3-(1,4-diazabicyclo[3.2.2]non-4-yl)propyl]amino}-1,3,4-oxadiazol-2-yl)-3-(methyloxy)phenyl]benzamide] | ≤ 100
9 | O=C(Nc1ccc(-c2nnc(NCCCN3CCN4CCC3CC4)o2)cc1)c1ccccc1 [Example 123, N-[4-(5-{[3-(1,4-diazabicyclo[3.2.2]non-4-yl)propyl]amino}-1,3,4-oxadiazol-2-yl)phenyl]benzamide] | ≤ 100
10 | O=C(Nc1ccc(-c2nnc(NCCCN3CCN4CCC3CC4)o2)c(F)c1)c1ccccc1 [Example 124, N-[4-(5-{[3-(1,4-diazabicyclo[3.2.2]non-4-yl)propyl]amino}-1,3,4-oxadiazol-2-yl)-3-fluorophenyl]benzamide] | ≤ 100
11 | O=C(Nc1ccc(-c2nnc(NCCCN3CCN4CCC3CC4)o2)c(Cl)c1)c1ccccc1F [Example 125, N-[3-chloro-4-(5-{[3-(1,4-diazabicyclo[3.2.2]non-4-yl)propyl]amino}-1,3,4-oxadiazol-2-yl)phenyl]-2-fluorobenzamide] | ≤ 100
12 | COc1cc(NC(=O)c2ccccc2F)ccc1-c1nnc(NCCCN2CCCC2)o1 [Example 126, 2-fluoro-N-[3-(methyloxy)-4-(5-{[3-(1-pyrrolidinyl)propyl]amino}-1,3,4-oxadiazol-2-yl)phenyl]benzamide] | ≤ 1000
13 | COc1cc(NC(=O)c2ccccc2F)ccc1-c1nnc(NCCCCN2CCCC2)o1 [Example 127, 2-fluoro-N-[3-(methyloxy)-4-(5-{[4-(1-pyrrolidinyl)butyl]amino}-1,3,4-oxadiazol-2-yl)phenyl]benzamide] | ≤ 100
14 | CC1(C)CCN(CCCNc2nnc(-c3ccc(NC(=O)c4ccccc4F)cc3)o2)CC1 [Example 135, N-[4-(5-{[3-(4,4-dimethyl-1-piperidinyl)propyl]amino}-1,3,4-oxadiazol-2-yl)phenyl]-2-fluorobenzamide] | ≤ 1000
15 | CCC(C)N(C)CCCNc1nnc(-c2ccc(NC(=O)c3ccccc3F)cc2)o1 (stereo not drawn) [Example 136, 2-fluoro-N-{4-[5-({3-[methyl(1-methylpropyl)amino]propyl}amino)-1,3,4-oxadiazol-2-yl]phenyl}benzamide] | ≤ 1000
16 | CN(CCCNc1nnc(-c2ccc(NC(=O)c3ccccc3F)cc2)o1)C1CCCC1 [Example 137, N-{4-[5-({3-[cyclopentyl(methyl)amino]propyl}amino)-1,3,4-oxadiazol-2-yl]phenyl}-2-fluorobenzamide] | ≤ 1000
17 | COc1cc(NC(=O)c2ccccc2F)ccc1-c1nnc(NCCCCN2CCC(F)CC2)o1 [Example 145, 2-fluoro-N-[4-(5-{[4-(4-fluoro-1-piperidinyl)butyl]amino}-1,3,4-oxadiazol-2-yl)-3-(methyloxy)phenyl]benzamide] | ≤ 100
18 | O=C(Nc1ccc(-c2nnc(NCCCN3CCCC3)o2)cc1)C1CCCCC1 [Example 146, N-[4-(5-{[3-(1-pyrrolidinyl)propyl]amino}-1,3,4-oxadiazol-2-yl)phenyl]cyclohexanecarboxamide] | ≤ 1000
19 | O=C(Nc1ccc(-c2nnc(NCCCCN3CCCC3)o2)cc1)C1CCCCC1 [Example 147, N-[4-(5-{[4-(1-pyrrolidinyl)butyl]amino}-1,3,4-oxadiazol-2-yl)phenyl]cyclohexanecarboxamide] | ≤ 100
20 | O=C(Nc1ccc(-c2nnc(NCCCCN3CCOCC3)o2)cc1)C1CCCCC1 [Example 148, N-[4-(5-{[4-(4-morpholinyl)butyl]amino}-1,3,4-oxadiazol-2-yl)phenyl]cyclohexanecarboxamide] | ≤ 1000
21 | CCN(CC)CCCNc1nnc(-c2ccc(NC(=O)C3CCCCC3)cc2)o1 [Example 149, N-[4-(5-{[3-(diethylamino)propyl]amino}-1,3,4-oxadiazol-2-yl)phenyl]cyclohexanecarboxamide] | ≤ 1000
22 | CCN(CC)CCCCNc1nnc(-c2ccc(NC(=O)C3CCCCC3)cc2)o1 [Example 150, N-[4-(5-{[4-(diethylamino)butyl]amino}-1,3,4-oxadiazol-2-yl)phenyl]cyclohexanecarboxamide] | ≤ 1000
23 | O=C(Nc1ccc(-c2nnc(NCCCCN3CCCC3)o2)c(Cl)c1)c1ccccc1F [Example 153, N-[3-chloro-4-(5-{[4-(1-pyrrolidinyl)butyl]amino}-1,3,4-oxadiazol-2-yl)phenyl]-2-fluorobenzamide] | ≤ 100
24 | O=C(Nc1ccc(-c2nnc(NCCCCN3CCOCC3)o2)c(Cl)c1)c1ccccc1F [Example 154, N-[3-chloro-4-(5-{[4-(4-morpholinyl)butyl]amino}-1,3,4-oxadiazol-2-yl)phenyl]-2-fluorobenzamide] | ≤ 100
25 | CCN(CC)CCCNc1nnc(-c2ccc(NC(=O)c3ccccc3F)cc2Cl)o1 [Example 155, N-[3-chloro-4-(5-{[3-(diethylamino)propyl]amino}-1,3,4-oxadiazol-2-yl)phenyl]-2-fluorobenzamide] | ≤ 1000

More lines, now with the values ahead:

Row | EC50 [nM] | Compound
26 | ≤ 100 | CCN(CC)CCCCNc1nnc(-c2ccc(NC(=O)c3ccccc3F)cc2Cl)o1 [Example 156, N-[3-chloro-4-(5-{[4-(diethylamino)butyl]amino}-1,3,4-oxadiazol-2-yl)phenyl]-2-fluorobenzamide]
27 | ≤ 1000 | O=C(Nc1ccc(-c2nnc(NCCCN3CCCC3)o2)c(Cl)c1)C1CCCCC1 [Example 157, N-[3-chloro-4-(5-{[3-(1-pyrrolidinyl)propyl]amino}-1,3,4-oxadiazol-2-yl)phenyl]cyclohexanecarboxamide]
28 | ≤ 100 | O=C(Nc1ccc(-c2nnc(NCCCCN3CCCC3)o2)c(Cl)c1)C1CCCCC1 [Example 158, N-[3-chloro-4-(5-{[4-(1-pyrrolidinyl)butyl]amino}-1,3,4-oxadiazol-2-yl)phenyl]cyclohexanecarboxamide]
29 | ≤ 1000 | CCN(CC)CCCNc1nnc(-c2ccc(NC(=O)C3CCCCC3)cc2Cl)o1 [Example 159, N-[3-chloro-4-(5-{[3-(diethylamino)propyl]amino}-1,3,4-oxadiazol-2-yl)phenyl]cyclohexanecarboxamide]
30 | ≤ 1000 | CCN(CC)CCCCNc1nnc(-c2ccc(NC(=O)C3CCCCC3)cc2Cl)o1 [Example 160, N-[3-chloro-4-(5-{[4-(diethylamino)butyl]amino}-1,3,4-oxadiazol-2-yl)phenyl]cyclohexanecarboxamide]
31 | ≤ 1000 | O=C(Nc1ccc(-c2nnc(NCCCCN3CCOCC3)o2)c(Cl)c1)C1CCCCC1 [Example 161, N-[3-chloro-4-(5-{[4-(4-morpholinyl)butyl]amino}-1,3,4-oxadiazol-2-yl)phenyl]cyclohexanecarboxamide]
32 | ≤ 1000 | O=C(Nc1ccc(-c2nnc(NCCCN3CCCCC3)o2)c(Cl)c1)C1CCCCC1 [Example 163, N-[3-chloro-4-(5-{[3-(1-piperidinyl)propyl]amino}-1,3,4-oxadiazol-2-yl)phenyl]cyclohexanecarboxamide]
33 | ≤ 100 | O=C(Nc1ccc(-c2nnc(NCCCCN3CCCCC3)o2)c(Cl)c1)C1CCCCC1 [Example 164, N-[3-chloro-4-(5-{[4-(1-piperidinyl)butyl]amino}-1,3,4-oxadiazol-2-yl)phenyl]cyclohexanecarboxamide]
34 | ≤ 1000 | O=C(Nc1ccc(-c2nnc(NCCCN3CCCC3)o2)c(Cl)c1)c1ccccc1F [Example 165, N-[3-chloro-4-(5-{[3-(1-pyrrolidinyl)propyl]amino}-1,3,4-oxadiazol-2-yl)phenyl]-2-fluorobenzamide]
35 | ≤ 1000 | CCc1cc(NC(=O)c2ccccc2F)ccc1-c1nnc(NCCCN2CCOCC2)o1 [Example 167, N-[3-ethyl-4-(5-{[3-(4-morpholinyl)propyl]amino}-1,3,4-oxadiazol-2-yl)phenyl]-2-fluorobenzamide]
36 | ≤ 1000 | CCc1cc(NC(=O)c2ccccc2F)ccc1-c1nnc(NCCCCN2CCCCC2)o1 [Example 168, N-[3-ethyl-4-(5-{[4-(1-piperidinyl)butyl]amino}-1,3,4-oxadiazol-2-yl)phenyl]-2-fluorobenzamide]
